Assay results published in patent publication US20260217701A1, “SELECTIVE BET INHIBITORS AND USES THEREOF” (Tay Therapeutics Limited, priority 2022, published 2026).
Several values for one entry are separate records, joined by “and”; a condition that tells them apart may be missing. Equal entries are not always repeated.

Key:
[1] = tested on: BET BD2; assay: Comparison with other BET inhibitors in development (EC50, selectivity, oral bioavailability; public information)
[2] = tested on: hydroxyproline; assay: Bleomycin IPF model: hydroxyproline content in lung lysates; type: in vivo, C57BI/6J mice; parameters: Hydroxyproline Levels, Mean: unit not given here
Procedure: Male C57BI/6J mice, aged 12 weeks with an approximate weight of 25-30 g were obtained from Jackson Laboratories (Bar Harbor, ME). Animals were acclimated for two weeks prior to study initiation, and were randomized into the experimental groups outlined in Table 32.
Intratracheal (IT) administration of Bleo or PBS control was conducted at the start of the study (Day 0). […] Animals were weighed on Day 0, and indexed boluses of PBS control (Group 1) or Bleo (Groups 2-6) were delivered by IT administration.
Following administration of Bleo, animals (n=10/group) were included in the study if they met the following guidelines on Day 7: (1) a predictable 5% loss in body weight, and (2) the presence of fibrotic pulmonary lesions, detected by micro-CT imaging. 10 animals from Group 1 additionally proceeded as controls. Animals that continued in the study on Day 7 received an oral gavage (OG) administration of PBS, Compound A (1 mg/kg, 3 mg/kg, 10 mg/kg), or Pirfenidone (300 mg/kg), as outlined in Table 31 in 25 μL boluses every other day (QOD), starting on Day 7. Compound A was formulated in 5% (v/v) DMSO/15% (v/v) PEG 400/80% (v/v) E-TPGS in purified water.
Animals were euthanized on Day 21 following Micro-CT imaging, and the right lung was collected for biochemical analysis, and the left lung was inflation-fixed for morphological assessments. A resection of the right lung was weighed and homogenized to determine total hydroxyproline levels by colorimetric assay, and the remaining lung lysate was saved for future analyses.

[3] = SLE (lupus) model: body weight; type: in vivo, MRL/MpJ-Faslpr mice
Procedure: (§1) Female MRL/MpJ-Faslpr mice (The Jackson Laboratory) were used to assess the efficacy of Compound A in treating lupus. Starting when animals were 10 weeks of age, protein concentration in urine was measured using urine dipsticks.
At the start of the study, each group in the study had two animals that were 9 weeks old, and all others were 10 weeks old. Dosing of all animals with the test compounds began when the older animals were 11 weeks old. […] […] Dosing was at a consistent time each dosing day throughout the study.
(§2) Compound A may be formulated as illustrated in Experimental Method A (see Table 2E.). […] A stock solution of Compound A in DMSO (stock solution concentration of Compound A of 40 mg/mL) was prepared and aliquots for weekly preparations were frozen at −20° C. On each preparation day, a stock solution aliquot was thawed and diluted with other vehicle components to the desired concentration. Formulated Compound A and vehicle were at room temperature for dosing.
(§3) The study began when the older animals were 11 weeks old, and concluded when the older animals were 19 weeks old. Body weight was recorded once a week, with the exception of two weight measurements taken the first week of the study (when the older animals were 11 weeks old). Proteinuria was measured in the urine of animals with urine dipsticks once a week, starting when the older animals were 10 weeks old. […] Blood samples were taken retro-orbitally at the start of the study to establish a baseline (15 animals, 3 per group), and when the older animals were 16 weeks (all animals) and when animals were 19 weeks (all animals) at the conclusion of the study. Blood urea nitrogen (BUN) was measured in all animals at study termination in blood samples. After blood collection, animals were euthanized, perfused with PBS, and the left kidneys were collected and weighed and fixed in 10% buffered formalin. Left kidneys were then processed to a formalin-fixed, paraffin-embedded (FFPE) block, and histology was analyzed in Periodic Acid-Schiff-stained sections (1 section per slide), using the criteria described in Alperovich et al., Lupus, 16:18-24 (2007). Right kidneys were weighed and snap-frozen at −80° C. Spleens were also collected and weighed. SLE in animals treated with a BET inhibitor and vehicle.

[4] = tested on: lupus; assay: SLE (lupus) model: blood urea nitrogen (BUN) in serum; type: in vivo, MRL/MpJ-Faslpr mice; details: Week 19
Procedure: as §1
At the start of the study, each group in the study had two animals that were 9 weeks old, and all others were 10 weeks old. Dosing of all animals with the test compounds began when the older animals were 11 weeks old. Starting on Day 1, in Groups 1-4, vehicle or Compound A was administered per os (PO) […] (QD) as described above in Table 33. […] Dosing was at a consistent time each dosing day throughout the study.
as §2, §3
BUN provides important information about how well kidneys are working. A BUN test measures the amount of urea nitrogen in the blood and indicates how much urea has been processed by the kidneys and is indicative of renal competency. Urea is a waste product that is excreted in urine.

[5] = UUO study: serum urea levels; type: in vivo; details: UUO rats
Excerpt: Tables 30A-30B and FIG. 27A depict serum urea levels in sham rats (black bar), UUO rats treated with vehicle (grey bar), and UUO rats treated with Compound A (white bar).

Cn1cc(-c2ccccc2)c(-c2cn(C)c(=O)c3[nH]c(-c4cnn(C(F)(F)F)c4)cc23)cc1=O [Compound A, 6-methyl-4-(1-methyl-2-oxo-5-phenyl-1,2-dihydropyridin-4-yl)-2-(1-(trifluoromethyl)-1H-pyrazol-4-yl)-1,6-dihydro-7H-pyrrolo[2,3-c]pyridin-7-one]
selectivity relative to other BET inhibitors ([1]; same comparators): higher selectivity | EC50 relative to other BET inhibitors ([1]; vs NUV-868, ABBV-744, GSK620, Pelabresib, ABBV-075, MK-8628/OTX-015, BI-894999): lower EC50 | Hydroxyproline Levels, Mean ([2]; Bleo + Compound A (1 mg/kg) OG QOD from D7): 0.05281 | Hydroxyproline Levels, Mean ([2]; Bleo + Compound A (3 mg/kg) OG QOD from D7): 0.05418 | Hydroxyproline Levels, Mean ([2]; Bleo + Compound A (10 mg/kg) OG QOD from D7): 0.04627 | Hydroxyproline levels relative to Group 2 ([2]; Day 21, 1 mg/kg and 3 mg/kg): reduced levels of hydroxyproline | Hydroxyproline levels, lower than IPF control group (Bleo+Saline) ([2]; Day 21, 10 mg/kg): about 60.4% | Relative end body weight (% of Week 11) ± SEM ([3]; 1 mg/kg): 114.5% ± 1.5% | Weight gain relative to control groups ([3]; 1 mg/kg and 10 mg/kg): improved weight gains relative to the control groups | Relative end body weight (% of Week 11) ± SEM ([3]; 3 mg/kg): 110.7% ± 2.1% | Relative end body weight (% of Week 11) ± SEM ([3]; 10 mg/kg): 114.4% ± 1.6% | Mean Body Weight ([3]; Compound A 1 mg/kg PO QD, Week 11): 35.2 g | Mean Body Weight ([3]; Compound A 1 mg/kg PO QD, Week 12): 36.4 g | Mean Body Weight ([3]; Compound A 1 mg/kg PO QD, Week 13): 37.6 g | Mean Body Weight ([3]; Compound A 1 mg/kg PO QD, Week 14): 38.5 g | Mean Body Weight ([3]; Compound A 1 mg/kg PO QD, Week 15): 38.9 g | Mean Body Weight ([3]; Compound A 1 mg/kg PO QD, Week 16): 40.0 g | Mean Body Weight ([3]; Compound A 1 mg/kg PO QD, Week 17): 39.5 g | Mean Body Weight ([3]; Compound A 1 mg/kg PO QD, Week 18): 39.7 g | Mean Body Weight ([3]; Compound A 1 mg/kg PO QD, Week 19): 40.2 g | Mean Body Weight ([3]; Compound A 3 mg/kg PO QD, Week 11): 35.0 g | Mean Body Weight ([3]; Compound A 3 mg/kg PO QD, Week 12): 35.0 g | Mean Body Weight ([3]; Compound A 3 mg/kg PO QD, Week 13): 36.5 g | Mean Body Weight ([3]; Compound A 3 mg/kg PO QD, Week 14): 37.4 g | Mean Body Weight ([3]; Compound A 3 mg/kg PO QD, Week 15): 37.9 g | Mean Body Weight ([3]; Compound A 3 mg/kg PO QD, Week 16): 38.7 g | Mean Body Weight ([3]; Compound A 3 mg/kg PO QD, Week 17): 38.6 g | Mean Body Weight ([3]; Compound A 3 mg/kg PO QD, Week 18): 38.1 g | Mean Body Weight ([3]; Compound A 3 mg/kg PO QD, Week 19): 38.6 g | Mean Body Weight ([3]; Compound A 10 mg/kg PO QD, Week 11): 35.1 g | Mean Body Weight ([3]; Compound A 10 mg/kg PO QD, Week 12): 35.6 g | Mean Body Weight ([3]; Compound A 10 mg/kg PO QD, Week 13): 37.1 g | Mean Body Weight ([3]; Compound A 10 mg/kg PO QD, Week 14): 37.8 g | Mean Body Weight ([3]; Compound A 10 mg/kg PO QD, Week 15): 38.8 g | Mean Body Weight ([3]; Compound A 10 mg/kg PO QD, Week 16): 39.3 g | Mean Body Weight ([3]; Compound A 10 mg/kg PO QD, Week 17): 39.3 g | Mean Body Weight ([3]; Compound A 10 mg/kg PO QD, Week 18): 39.4 g | Mean Body Weight ([3]; Compound A 10 mg/kg PO QD, Week 19): 39.9 g | BUN serum concentration ([4]; Compound A 1 mg/kg PO QD): 18.0 mg/dL | BUN serum concentration ([4]; Compound A 3 mg/kg PO QD): 16.8 mg/dL | BUN serum concentration ([4]; Compound A 10 mg/kg PO QD): 11.0 mg/dL | Blood urea nitrogen (BUN) concentration in serum ([4]; highest dose (10 mg/mL)): 11 mg/dL | Serum urea levels, difference between experimental groups ([5]; 10 mg/kg): No significant differences | Serum Urea (Mean + S.D.) ([5]; 10 mg/kg QD): 5.67 ± 0.71 mmol/L | Serum Urea ([5]; Compound A 10 mg/kg QD, individual animals, 10 mg/kg): 5.72 mmol/L and 5.03 mmol/L and 5.64 mmol/L and 6.28 mmol/L and 5.22 mmol/L and 4.77 mmol/L and 6.97 mmol/L and 5.71 mmol/L
